In patent publication US5795861A, “Methods for regulating gastrointestinal motility” (Amylin Pharmaceuticals Inc., priority 1995, dated 1998):
No end group written: not given here.

How the values were obtained:
anesthetized rats [1] = test: perfused exteriorized small bowel, passage of tritium-labelled glucose into plasma; type: in vivo, rat; details: plasma glucose clamped
Source text: (§1) After one hour of amylin infusion, a bolus of glucose (lg/kg) was infused either into the stomach or the duodenum through a tube inserted through the esophagus. Because-the studies involved anesthetized rather than conscious rats, they are not considered in analyzing gastric motility, e.g., rate of emptying of stomach contents into the duodenum. However, the studies indicate that absorption of glucose from the duodenum into the blood was not delayed by amylin. […] In anesthetized rats, a segment of small bowel, still connected to the animal via its blood supply, was exteriorized and cannulae inserted so that the small bowel could be perfused with glucosed solutions of controlled composition. The animals were cannulated also via an artery (for blood sampling) and via a vein (for infusion of amylin, insulin and glucose). The lumen was perfused with a tritium-labelled glucose solution. The passage of glucose from the lumen of the gut into the rat was measured by the appearance of the tritium label in the plasma. The supposition that such appearance of tritium in the plasma was indeed measuring glucose uptake from the gut was tested by administration of the glucose transport blocker, phloridzin. […]

[2] = test system: rats, rabbits, humans with Paget's disease; details: cited from earlier work
[3] = plasma amylin concentration after subcutaneous rat amylin (immuno-enzymometric assay); type: in vivo; details: sc
Description: The plasma from 250 μL samples collected at 10 min intervals was separated and frozen at -20° C. for analysis by a 2-site immuno-enzymometric assay developed in-house.
To perform the immunoassay, black microtiter plates (Dynatech, Chantilly, Va.) were coated with the antibody F024-4.4 [Phelps J L, Blase E, Koda J E, unpublished] by overnight incubation at 4° C. with 20 ug antibody per mL in 50 mM carbonate at pH 9.6. Plates were washed with 0.05M Tris/0.15M sodium chloride/0.02% sodium azide/0.1% Tween 20 (TBS/Tween), and blocked with 1.0% nonfat dry milk powder in the same carbonate buffer for one hour at room temperature. Samples were thawed on ice, and diluted in 4% BSA/200mg/dl bovine cholesterol supertrate (Miles Pentex reagents, Miles Laboratories, Kankakee Ill.) if necessary. Samples or standards were added to the coated and blocked plates and incubated for one hour at room temperature. After washing, the F025-27 detection antibody conjugated to alkaline phosphatase was added. Antibody-enzyme coupling was performed using the maleimide alkaline phosphatase conjugation kit from Pierce Immunochemical Co (Rockford Ill.). The conjugate was incubated for three hours at room temperature, after which plates were washed thoroughly with Tris buffered saline. Bound enzyme was detected by incubation of the plates with the fluorescent substrate 4-methylumbelliferyl phosphate at 50 ug/ml in 1M diethanolamine/0.5 mM MgCl, pH 9.8 for 40 minutes at room temperature. The fluorescent signal was measured with a Dynatech Microfluor plate reader, and data analyzed on Multicalc software (Wallac, Gaithersburg Md.). […] When performed in this manner, the assay has a minimum detectable concentration of 2 pM.

anesthetized rats [4] = test: glucose bolus into stomach or duodenum during amylin infusion; type: in vivo; details: rat amylin 0.35 nm/kg/min infusion
Source text: as §1

diabetic BB rats = test: gastric emptying of Phenol Red methylcellulose gel, diabetic rats; type: in vivo, rat; details: for ED50 for suppression of gastric emptying: diabetic rats fasted 6 hours, s.c. 5 min before gavage
Description: When BB rats were confirmed as being diabetic by glycosuria on at least 2 days, they were treated with daily s.c. injections of ultralente recombinant human insulin (Humulin-U, Eli Lilly, Ind.). Insulin therapy was aimed at maintaining glucose but minimizing ketones in the urine, in order to avoid hypoglycemic deaths. In fact, glycosuria was present in 88% of measurements and ketonuria in 52%. The average duration of diabetes was 53±5 days, and daily insulin requirements were 4.7±0.3 units. All animals were housed at 22.7±0.8 C in a 12:12 hour light:dark cycle (experiments being performed during the light cycle) and were fed and watered ad libitum (Diet LM-485, Teklad, Madison, Wis.).
The determination of gastric emptying by the method described below has usually been performed after a fast of ~20 hours to ensure that the stomach contained no chyme that would interfere with spectrophotometric absorbance measurements. However, diabetic rats treated with Ultralente insulin could not be fasted for 20 hours. […] Such animals were therefore. fasted for only 6 hours before measurement of gastric emptying. Non-diabetic rats were deprived of food for either 6 or 20 hours prior to experimentation. We have noted that even non-diabetic BB rats have elevated glycated hemoglobin concentrations, possibly indicating subclinical insulitis. Both non-diabetic Harlan Sprague Dawley rats and non-diabetic BB rats animals were therefore used in comparisons with diabetic rats. Thus there were 5 treatment groups:
Twenty minutes after gavage, rats were anesthetized using 5% halothane, the stomach exposed and clamped at the pyloric and lower esophageal sphincters using artery forceps, removed and opened into an alkaline solution which was made up to a fixed volume. Stomach content was derived from the intensity of the phenol red in the alkaline solution, measured by absorbance at a wavelength of 560 nm. In most experiments, the stomach was clear. In other experiments, particulate gastric contents were centrifuged to clear the solution for absorbance measurements. Where the diluted gastric contents remained turbid, the spectroscopic absorbance due to Phenol Red was derived as the difference between that present in alkaline vs acidified diluent. In separate experiments on 7 rats, the stomach and small intestine were both excised and opened into an alkaline solution. The quantity of phenol red that could be recovered from the upper gastrointestinal tract within 20 minutes of gavage was 89±4%. To account for a maximal dye recovery of less than 100%, stomach contents remaining after 20 min were expressed as a fraction of the gastric contents recovered from control rats sacrificed immediately after gavage in the same experiment. […]

Mongrel dogs = test: oral glucose tolerance test in dogs during amylin ± AC-0253 infusion; type: in vivo; details: for effects on plasma lactate: oral glucose load
Description: Mongrel dogs (9 males, 12-17 kg wt. range) were used for this study. All animals were fasted overnight prior to each study. Each animal served as its own control for all protocols. Animals were equilibrated for 30-60 minutes prior to the start of each protocol.
25% glucose (1 gm/kg) was administered by mouth at t=0 minutes. […] Samples for insulin, glucose and lactate were obtained at 15 minute intervals from t=-45 to t=180 minutes.

[5] = test system: non-diabetic Harlan Sprague Dawley rats; test: gastric emptying of Phenol Red methylcellulose gel, normal rats; type: in vivo, rat; details: for ED50, suppression of gastric emptying: normal rats fasted 20 hours, s.c. 5 min before gavage
Source text: Twenty minutes after gavage, rats were anesthetized using 5% halothane, the stomach exposed and clamped at the pyloric and lower esophageal sphincters using artery forceps, removed and opened into an alkaline solution which was made up to a fixed volume. Stomach content was derived from the intensity of the phenol red in the alkaline solution, measured by absorbance at a wavelength of 560 nm. In most experiments, the stomach was clear. In other experiments, particulate gastric contents were centrifuged to clear the solution for absorbance measurements. Where the diluted gastric contents remained turbid, the spectroscopic absorbance due to Phenol Red was derived as the difference between that present in alkaline vs acidified diluent. In separate experiments on 7 rats, the stomach and small intestine were both excised and opened into an alkaline solution. The quantity of phenol red that could be recovered from the upper gastrointestinal tract within 20 minutes of gavage was 89±4%. To account for a maximal dye recovery of less than 100%, stomach contents remaining after 20 min were expressed as a fraction of the gastric contents recovered from control rats sacrificed immediately after gavage in the same experiment.
Since ED50 is log-normally distributed, it is expressed i standard error of the logarithm. Pairwise comparisons were performed using one-way analysis of variance and the Student-Newman-Keuls multiple comparisons test (Instat v2.0, GraphPad Software, San Diego) using P<0.05 as the level of significance.

intact rats = details: given subcutaneously, no disturbance of blood pressure
fed rats = details: preinfusion of antagonist; cited from earlier work
corpulent LA/N rats = test: uptake of ingested labelled glucose load after amylin antagonist preinjection; type: in vivo, rat; details: for acceleration of appearance of glucose-derived tritium in the plasma: 3 μg s.c. 3 minutes before gavage
Description: Uptake of an ingested labelled glucose load was measured in 11 conscious 24-hr fasted corpulent (500-600 g) LA/N rats on 2 occasions, 14 days apart.

[6] = test system: motility of the gastro-intestinal tract; details: 0.2 to 2 mgs intravenously; cited from earlier work

Question: Which “passage of tritium-labelled glucose from the gut lumen into the plasma” value (anesthetized rats [1]) does the source give for `O=C(CCc1ccc(O)cc1)c1c(O)cc(O)cc1O[C@@H]1O[C@H](CO)[C@@H](O)[C@H](O)[C@H]1O` [Phloridzin, reference compound] here?
Answer: Its value is “largely prevented the transit of label from the gut lumen into the plasma”.

Question: What does the source list for `CC(C)C[C@H](NC(=O)[C@H](CC(N)=O)NC(=O)[C@H](CC(N)=O)NC(=O)[C@H](CO)NC(=O)[C@H](CO)NC(=O)[C@H](CCCNC(=N)N)NC(=O)[C@@H](NC(=O)[C@H](CC(C)C)NC(=O)[C@H](Cc1ccccc1)NC(=O)[C@H](CC(N)=O)NC(=O)[C@H](C)NC(=O)[C@H](CC(C)C)NC(=O)[C@H](CCCNC(=N)N)NC(=O)[C@H](CCC(N)=O)NC(=O)[C@@H](NC(=O)[C@H](C)NC(=O)[C@@H]1CSSC[C@H](NC(=O)[C@@H](N)CCCCN)C(=O)N[C@@H](CC(N)=O)C(=O)N[C@@H]([C@@H](C)O)C(=O)N[C@@H](C)C(=O)N[C@@H]([C@@H](C)O)C(=O)N1)[C@@H](C)O)C(C)C)C(=O)NCC(=O)N1CCC[C@H]1C(=O)N[C@H](C(=O)N[C@@H](CC(C)C)C(=O)N1CCC[C@H]1C(=O)N1CCC[C@H]1C(=O)N[C@H](C(=O)N[C@@H](CC(N)=O)C(=O)N[C@H](C(=O)NCC(=O)N[C@@H](CO)C(=O)N[C@@H](CC(N)=O)C(=O)N[C@H](C(=O)N[C@@H](Cc1ccc(O)cc1)C(N)=O)[C@@H](C)O)C(C)C)[C@@H](C)O)C(C)C` [amylin]?
Answer: lowering of plasma calcium [2]: up to 20%; level at time molar at 10 min ([3]; 1 ug, 1 μg s.c.): 0.066 ± 0.01 nM; level at time molar at 10 min ([3]; 10 ug, 10 μg s.c. bolus): 0.347 ± 0.043 nM; level at time molar at 20 min ([3]; 10 ug, 10 μg s.c. bolus, 20 min): 0.301 ± 0.057 nM; absorption of glucose from the duodenum into the blood (anesthetized rats [4]): not delayed; dose that would restore gastric emptying to the rate of normal rats not administered amylin (diabetic BB rats; diabetic rat, estimated from fitted curves of FIG. 14): ~ 2 μg; ED50 of inhibition of gastric emptying (summary statement) (diabetic BB rats; diabetic rats): ~ 1 μg; ED50 for suppression of gastric emptying (diabetic BB rats): 2.3 nmol/kg; ED50 for suppression of gastric emptying (diabetic BB rats; ±0.18 log units): 2.2 µg; passage of tritium-labelled glucose from the gut lumen into the plasma (anesthetized rats [1]): had no effect; rate of rise and peak of plasma glucose after oral glucose load (Mongrel dogs; amylin infusion 50, 100 and 300 pmol/kg/min, 25% glucose 1 gm/kg by mouth): reduced both the rate of rise in plasma glucose as well as the peak plasma glucose; effects on plasma lactate (Mongrel dogs): unremarkable; ED50 of inhibition of gastric emptying (summary statement) ([5]; normal rats): ~ 1 μg; ED50, suppression of gastric emptying [5]: 0.60 nmole amylin/kg body weight; ED50, suppression of gastric emptying ([5]; ±0.19 log units): 0.43 µg; plasma renin activity (intact rats): markedly increases

Question: With “^8-37 hCGRP: demonstrated amylin blocker in vitro and in vivo; also an effective CGRP antagonist (VTHRLAGLLSRSGGVVKNFVPTNVGSKAF)” as the compound, how does the “glucose concentration following arginine infusion” value (fed rats) read?
Answer: The value was “subsequent fall in glucose concentration to well below the basal level”.

Question: What about the “insulin concentration 30 minutes following the arginine infusion vs normal controls” value (fed rats) of the same compound?
Answer: Its value is “almost twice as high”.

Question: With “acetyl-^10 Asn^32 Tyr^8-32 salmon calcitonin (Ac-VLNKLSQELHKLQTYPRTNTGSGTY; ends and bridges not checked) [AC-0187]” as the compound, how does the “plasma glucose 60 minutes after glucose gavage” value (corpulent LA/N rats; 3 μg s.c.) read?
Answer: The value was 6.89 ± 0.28 mM.

Question: And the “acceleration of appearance of glucose-derived tritium in the plasma” value (corpulent LA/N rats; 15 minutes post-gavage)?
Answer: Its value is 48%.

Question: And the “acceleration of appearance of glucose-derived tritium in the plasma” value (corpulent LA/N rats; 30 minutes post-gavage)?
Answer: The value was 45%.

Question: And the “plasma glucose 15 minutes after gavage” value (corpulent LA/N rats; 3 μg s.c., gavage with 0.5 g glucose)?
Answer: The value was 8.33 ± 0.28 mM.

Question: What about the “plasma glucose before gavage” value (corpulent LA/N rats; 3 μg s.c., starting value) of the same compound?
Answer: The value was 5.89 ± 0.17 mM.

Question: With “acetyl-^11,18 Arg, ^30 Arg, ^32 Tyr-^9-32 calcitonin (salmon) [AC-0253]” as the compound, how does the “changes in plasma glucose, antagonist alone” value (Mongrel dogs; AC-0253 alone) read?
Answer: The value was “has no effect”.

Question: What about the “reversal of amylin-induced changes in plasma glucose” value (Mongrel dogs; AC-0253 up to 1500 pmol/kg/min with amylin 50 pmol/kg/min) of the same compound?
Answer: Its value is “does not completely reverse the effects of amylin”.

Question: And the “effects on plasma lactate” value (Mongrel dogs)?
Answer: The value was “unremarkable”.

Question: For “glucagon: polypeptide hormone produced by the alpha cells of the pancreatic islets; administered as glucagon hydrochloride”, which onset of effect [6] is on record?
Answer: The onset of effect was “within one minute”.
